Data reported in patent publication US10925858B2, “S-nitrosoglutathione (GSNO) and GSNO reductase inhibitors for use in therapy” (MUSC FOUNDATION FOR RESEARCH DEVELOPMENT, priority 2017, dated 2021).

Tests used:
[1] = system: cell adhesion molecules (ICAM-1 and VCAM-1); assay: Western blotting, protein expression of cell adhesion molecules in isolated microvessels of diabetic mice; format: in vivo; details: cortex and hippocampus microvessels, GSNO vs untreated diabetic group
Description: Male laca mice weighing between 28-32 g were procured from the Central Animal House, Panjab University, Chandigarh. The animals were acclimatized and were fed with standard pellet diet and water ad libitum. The experimental protocols were approved by the Institutional Ethics Committee and were conducted according to Indian National Science Academy (INSA) guidelines for the use and care of experimental animals. The animals were divided into four groups: (i) Control animals received phosphate buffered saline (PBS) throughout the study; (ii) Control+GSNO animals were administered with GSNO 100 μg/kg body weight orally, dissolved in PBS after every 24 h for 8 weeks; (iii) Diabetic animals were injected with STZ at a dose of 40 mg/kg body weight intraperitoneally for 5 days dissolved in 0.1 mol/L citrate buffer, pH 4.5 and Diabetic+GSNO mice were administered GSNO 100 μg/kg body weight orally dissolved in PBS after every 24 h for 8 weeks after the induction of diabetes. Animals were assessed weekly for development of diabetic encephalopathy in terms of memory deficits. All experimental procedures were done on mice at the end of study. The microvessels were isolated by the method described by Brooks et al., (2005). […]

passive EAE disease = assay: Adoptive transfer model of EAE (passive EAE), clinical disease; format: in vivo, SJL mice
Description: EAE disease was induced in 8- to 10-week-old female SJL mice by immunization with an emulsion (100 μl, subcutaneous) of proteolipid protein peptide (PLP139-151; Peptide International. Louisville, Ky.) and 200 μg of killed Mycobacterium tuberculosis H37Ra (Difco, Detroit, Mich., USA) followed by booster on day 7 as described previously (Nath et al., 2010). The mice additionally received pertussis toxin (Sigma-Aldrich, St. Louis, Mo.; 200 ng/300 μl PBS, intravenous) on day 0 and 3 post-immunization. On the day of immunization, one group of mice received 100 μl phosphate buffered saline (PBS) and the second group of mice received daily GSNO (1.0 mg/kg, 100 μl/PBS) via oral route GSNO was purchased from World Precision Instruments (Sarasota, Fla.) and its concentration was adjusted spectrophotometrically at 334 nm. Individual animals were observed daily for clinical disease severity by an investigator, blinded to experimental treatments, on a 0-5 scale as follows: 0=no abnormality; 1=piloerection, sluggish, 2=limp tail; 2.5=hind limb weakness (legs slip through cage top); 3=hind limb paralysis, 4=hind and forelimb paralysis; and 5=moribund.
At the peak of EAE disease, the mice were sacrificed and CD4+ T cells were purified from draining lymph nodes (DLN) and spleens by CD4+ T cell isolation kit (Miltenyi, Auburn. Calif.). The purified T cells (2.5×10^6 cells/ml) were cultured in 96-well round-bottom microculture plates (Falcon Labware, Oxnard, Calif.) in RPMI-complete media containing RPMI 1640 (Life Technologies, Gaithersburg, Md.), 10% FBS, and 100 μg/ml streptomycin and penicillin (Atlanta Biologicals Norcross, Ga.), 1 mM glutamine, 1 mM nonessential amino acids, and 50 μM 2-mercaptoethanol (Sigma-Aldrich). For skewing of different CD4+ T cell subsets and their expansion, the isolated CD4+ T cells were stimulated with PLP139-151 (5 μg/ml) with IL-2 (10 ng/ml) for TH0, IL-2 (10 ng/ml), rhIL-12p35 (10 ng/ml), and anti-IL-4 (1 μg/ml) for TH1, or recombinant mouse IL-12/23p40 homodimer (10 ng/ml), anti-IFN-γ 1 (μg/ml), anti-IL-4 (1 μg/ml) for TO 17. All cytokines and antibodies were purchased from BD Biosciences (San Diego, Calif.). Following stimulation, the cells were harvested for adoptive transfer of EAE disease and the culture supernatants were collected for analysis of IFN-γ, IL-17, and IL-10 expression by ELISA (Biolegend Cat #430802, 432505, and 431411; San Diego, Calif.).
(20-30×10^6 T cells in 300 μl RPMI media per mouse) were injected to naive SJL female mice (8-10 week old) via intraperitoneal route. The recipient mice were also given two doses of pertussis toxin (200 ng/300 μl of PBS/i.p.) on day 0 and 2 of post immunization. Clinical EAE disease was measured as describe above.

[2] = daily GSNO treatment of recipient mice

**Q.** For `N[C@@H](CCC(=O)N[C@@H](CSN=O)C(=O)NCC(=O)O)C(=O)O` [GSNO, S-nitrosoglutathione], which “protein expression of ICAM-1” value [1] is on record?
**A.** The value was “significantly mitigate”.

**Q.** And the “protein expression of VCAM-1” value [1]?
**A.** Its value is “significantly mitigate”.

**Q.** What about the “passive EAE disease severity, recipients of T cells from GSNO treated EAE mice treated with GSNO during the disease” value (passive EAE disease; [2]) of the same molecule?
**A.** Its value is “further reduced”.

**Q.** What about the “passive EAE disease, recipients of T cells from untreated EAE mice treated with GSNO during the disease” value (passive EAE disease; [2]) of the same molecule?
**A.** Its value is “reduced the EAE disease”.

**Q.** And the “passive EAE disease after transfer of T cells from GSNO treated EAE mice” value (passive EAE disease; recipients without GSNO, vs T cells from untreated EAE mice)?
**A.** The value was “significantly delayed and milder disease”.

**Q.** What about the “passive EAE disease after transfer of TH1 and TH17 skewed T cells from GSNO treated EAE mice” value (passive EAE disease; vs T cells from untreated EAE mice) of the same molecule?
**A.** Its value is “significantly milder EAE disease”.
